Source: patent US7462615B2, “Inhibitors of cysteine proteases, the pharmaceutical compositions thereof and their therapeutic applications” (Hybrigenics SA, priority 2005, dated 2008)

Biological target: T1, MBP-SENP1 (Homo sapiens, UniProt Q9P0U3)
T1 construct: made in house; host or cells: E. coli BL21
T1 sequence (Q9P0U3 1-644): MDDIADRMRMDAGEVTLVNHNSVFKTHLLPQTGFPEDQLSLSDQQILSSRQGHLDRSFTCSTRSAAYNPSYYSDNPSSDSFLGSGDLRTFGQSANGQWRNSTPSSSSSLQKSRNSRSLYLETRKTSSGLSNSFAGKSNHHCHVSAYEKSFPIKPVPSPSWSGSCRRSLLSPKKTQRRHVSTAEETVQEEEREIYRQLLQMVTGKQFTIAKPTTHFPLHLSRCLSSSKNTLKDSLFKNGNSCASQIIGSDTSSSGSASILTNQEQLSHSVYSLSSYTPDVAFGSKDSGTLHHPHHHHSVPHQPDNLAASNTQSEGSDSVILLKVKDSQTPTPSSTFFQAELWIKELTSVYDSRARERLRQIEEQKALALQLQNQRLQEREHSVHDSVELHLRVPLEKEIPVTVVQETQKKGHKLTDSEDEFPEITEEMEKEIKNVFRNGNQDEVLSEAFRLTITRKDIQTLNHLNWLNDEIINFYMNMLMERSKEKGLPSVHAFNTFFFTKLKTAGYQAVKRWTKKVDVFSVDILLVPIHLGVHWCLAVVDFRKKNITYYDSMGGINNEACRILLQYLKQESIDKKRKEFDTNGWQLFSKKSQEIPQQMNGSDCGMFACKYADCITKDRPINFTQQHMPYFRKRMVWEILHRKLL
Assay: SENP1 Activity Assay
Format: biochemical
Conditions: 200 nM SUMO-AMC; 1.8 nM enzyme; pre-incubated 30 minutes at 25° C., 60 minutes at 37° C.; sigmoidal fit; read-out: SENP1 (Inhibition of cysteine protease activities)
Procedure: The cDNA encoding SENP1 was obtained by PCR amplification from placenta mRNA. SENP1 cDNA was subcloned by PCR into a bacterial expression vector (pMAL-C2X; New England BioLabs, Inc). The sequence was ascertained by sequencing of the entire open reading frame. pMAL-C2-SENP1 was transformed into BL21 cells and grown in LB-ampicillin medium supplemented with glucose (2 g.l^−1). Fusion protein expression was induced by IPTG (0.5 mM). Bacterial cell lysates were harvested and lyzed in lysis buffer (Tris HCl 20 mM pH7.4; 1 mM EDTA; 200 mM NaCl; 0.5% Triton X-100; 10% glycerol; Protease Inhibitor Cocktail) followed by sonication. Proteins were affinity purified on amylose affinity resin (New England BioLabs, Inc). Bound materials were extensively washed in wash buffer (20 mM Tris HCl pH7.4; 200 mM NaCl; 1 mM EDTA; 0.5% Triton X-100; 10% glycerol) and eluted from the resin in 10 mM maltose-containing wash buffer. Proteins were dialyzed in dialysis buffer (Tris HCl pH 7.6 20 mM; NaCl 200 mM; DTT 1 mM; EDTA 1 mM; 10% Glycerol). Proteins purifications were analyzed on 4-12% NuPAGE (Invitrogen).
MBP-SENP1 was diluted in SENP1 buffer (50 mM Tris HCl; 0.5 mM EDTA; 5 mM DTT; 0.01% Triton X-100; Bovine Serum Albumin 0.05 mg.ml^−1 pH7.6). Compounds stocks (100 mM) were stored at −20° C. in DMSO. Compounds were tested at the following final concentrations: 100 μM; 33.3 μM; 11.1 μM; 3.7 μM; 1.23 μM; 412 nM; 137 nM; 45.7 nM; 15.2 nM; 5 nM.
Reactions were performed as duplicates in Black LJL 96 well plates (HE microplates; Molecular Devices; 20 μl final reaction volume). The substrate concentration for SENP1 was 200 nM SUMO-AMC (Chem. Biol., 2003, 10, p. 837-846) (Boston Biochem). The concentration of the enzyme (SENP1) in specificity assays was 1.8 nM. The concentrations were determined in order to perform specificity assays under initial velocities at fixed substrate concentration. Compounds were pre-incubated with enzymes for 30 minutes at 25° C. Reactions were initiated by addition of substrate to the plates containing the enzymes (+/− compounds) diluted in assay buffer. Reactions were incubated for 60 minutes at 37° C. Reactions were stopped by adding acetic acid (100 mM final). Readings were performed on a Pherastar Fluorescent Reader (BMG). λ Emission 380 nm; λ Excitation=460 nm. Data (mean values +/− standard deviation) were analyzed as % of control (no compound) and plotted as percentage versus the Log of the compound concentration using GraphPad (Prism). Data were fitted to a sigmoidal model (variable slope).

| Molecule | IC50 [nM] |
| --- | --- |
| O=C1c2ccccc2-c2nn3c(CO)nnc3nc21 [Example 1h/B] | 1020 |
| COCc1nnc2nc3c(nn12)-c1ccccc1C3=O [Example 1i/B, 3-Methoxymethyl-1,2,3a, 4,10-pentaaza-cyclopenta[b]fluoren-9-one] | 1090 |
| CCc1nnc2nc3c(nn12)C(=O)c1ccccc1-3 [Example 1d/A, 1-Ethyl-2,3,4,10,10a-pentaaza-cyclopenta[b]fluoren-9-one] | > 100000 |
| 6-(7)-Chloro-1-methyl-2,3,4,10,10a-pentaaza-cyclopenta[b]fluoren-9-one [Example 3/A] | > 100000 |
| CC(C)Cc1nnc2nc3c(nn12)C(=O)c1ccccc1-3 [Example 1g/A, 1-Isobutyl-2,3,4,10,10a-pentaaza-cyclopenta[b]fluoren-9-one] | > 100000 |
| CCCc1nnc2nc3c(nn12)-c1ccccc1C3=O [Example 1e/B, 3-Propyl-1,2,3a, 4,10-pentaaza-cyclopenta[b]fluoren-9-one] | 694 |
| Nc1nnc2nc3c(nn12)-c1ccccc1C3=O [Example 1c/B, 3-Amino-1,2,3a,4,10-pentaaza-cyclopenta[b]fluoren-9-one] | 731 |
| CCCc1nnc2nc3c(nn12)C(=O)c1ccccc1-3 [Example 1e/A, 1-Propyl-2,3,4,10,10a-pentaaza-cyclopenta[b]fluoren-9-one] | 5880 |
| CC(C)Cc1nnc2nc3c(nn12)-c1ccccc1C3=O [Example 1g/B, 3-Isobutyl-1,2,3a,4,10-pentaaza-cyclopenta[b]fluoren-9-one] | 954 |
| Cc1nnc2nc3c(nn12)-c1ccccc1C3=O [Example 1b/B, 3-Methyl-1,2,3a,4,10-pentaaza-cyclopenta[b]fluoren-9-one] | 706 |
| O=C1c2ccccc2-c2nn3c(Cc4ccccc4)nnc3nc21 [Example 1k/B, 3-Benzyl-1,2,3a,4,10-pentaaza-cyclopenta[b]fluoren-9-one] | 1210 |
| O=C1c2ccccc2-c2nn3c(C4CC4)nnc3nc21 [Example 1j/B, 3-Cyclopropyl-1,2,3a,4,10-pentaaza-cyclopenta[b]fluoren-9-one] | 299 |
| Cc1nnc2nc3c(nn12)-c1ccc(Cl)cc1C3=O [Example 3/B, 7-Chloro-3-methyl-1,2,3a, 4,10-pentaaza-cyclopenta[b]fluoren-9-one] | 855 |
| CCc1nnc2nc3c(nn12)-c1ccccc1C3=O [Example 1d/B, 3-Ethyl-1,2,3a, 4,10-pentaaza-cyclopenta[b]fluoran-9-one] | 415 |
| O=C1c2ccccc2-c2nc3nnc(C4CC4)n3nc21 [Example 1j/A, 1-Cyclopropyl-2,3,4,10,10a-pentaaza-cyclopenta[b]fluoren-9-one] | > 100000 |
| CCCCc1nnc2nc3c(nn12)C(=O)c1ccccc1-3 [Example 1f/A, 1-Butyl-2,3,4,10,10a-pentaaza-cyclopenta[b]fluoren-9-one] | > 100000 |
| O=C1c2ccccc2-c2nc3nnc(Cc4ccccc4)n3nc21 [Example 1k/A, 1-Benzyl-2,3,4,10,10a-pentaaza-cyclopenta[b]fluoren-9-one] | > 100000 |
| CCCCc1nnc2nc3c(nn12)-c1ccccc1C3=O [Example 1f/B, 3-Butyl-1,2,3a,4,10-pentaaza-cyclopenta[b]fluoren-9-one] | 229 |
| COCc1nnc2nc3c(nn12)C(=O)c1ccccc1-3 [Example 1i/A, 1-Methoxymethyl-2,3,4,10,10a-pentaaza-cyclopenta[b]fluoren-9-one] | 22100 |
